Assay results from article PMC8894567 (The Journal of Antibiotics, 2022).

Tests used:
[1] = tested on: influenza virus A H7N1; details: cited from earlier work
[2] = tested on: influenza virus A/Puerto Rico/8/34 (H1N1); format: cell-based
[3] = tested on: influenza type A virus; details: cited from earlier work
[4] = tested on: influenza type B; details: cited from earlier work
[5] = tested on: herpes virus; details: read-out: EC50 antiherpetic; cited from earlier work
[6] = tested on: HIV; details: read-out: EC50 anti-HIV activity; cited from earlier work
[7] = tested on: Flu A H1N1 strain; details: cited from earlier work

Molecule | protection index [3] | protection index [4] | further results
3-oxime of betulonic acid and L-leucine-28-amide |  |  | EC50 [1]: 2.17 µM; suppression of influenza virus A H7N1 [1]: 90%
CC(N)C12CC3CC(CC(C3)C1)C2 (stereo not drawn) [Rimantadine] |  |  | SI, selectivity index CC50/IC50 [2]: 5
COC(=O)[C@]12CC[C@@H](C)[C@H](C)[C@H]1C1=CC[C@@H]3[C@@]4(C)CC[C@H](O)C(C)(C)[C@@H]4CC[C@@]3(C)[C@]1(C)CC2 [methyl ester of ursolic acid] | 60% | 80% | 
Alnincanone | 60% | 80% | 
Ethyl β-alaninate diamide 2,3 seco-lupane |  |  | EC50 [5]: 4.1 µM; EC50 [6]: 5.1 µM
echinocystic acid | 60% | 80% | 
lupane 3,4-seco-3,28-bis-N,N-methylpiperazine-amide |  |  | IC50 [7]: 27 µM
